Measured values from US20180244660A1, “CYCLOPROPYLDERIVATIVES AND THEIR USE AS KINASE INHIBITORS” (Karyopharm Therapeutics Inc., priority 2015, published 2018).
Like-named read-outs stand apart in the source and are kept apart here.

Tests used:
MS751 cells = assay: MTT cell proliferation assay, MS751 cells; type: cell-based, human; conditions: incubation approximately 64-72 hours, read-out: MTT Assay IC50 MS 751
Description: (§1) The MTT cell proliferation assay was used to study the cytotoxic properties of the compounds. The assay was performed according to the method described by Roche Molecular Biochemicals, with minor modifications. The assay is based on the cleavage of the tetrazolium salt, MTT, in the presence of an electron-coupling reagent. The water-insoluble formazan salt produced must be solubilized in an additional step. Cells grown in a 96-well tissue culture plate were incubated with the MTT solution for approximately 4 hours. After this incubation period, a water-insoluble formazan dye formed. After solubilization, the formazan dye was quantitated using a scanning multi-well spectrophotometer (ELISA reader). […] The cells were seeded at 5,000-10,000 cells in each well of 96-well plate in 100 μL of fresh culture medium and were allowed to attach overnight. The stock solutions of the compounds were diluted in 100 μL cell culture medium to obtain eight concentrations of each test compound, ranging from 1 nM to 30 μM. […] All optical densities were measured at 490 nm using a Vmax Kinetic Microplate Reader (Molecular Devices). In most cases, the assay was performed in duplicate and the results were presented as a mean percent inhibition to the negative control+SE. The following formula was used to calculate the percent of inhibition: Inhibition (%)=(1−(ODo/OD))×100.
(§2) The compounds were tested against MS751, Z138 and 3T3 cells. The MS751 cell line is derived from a metastasis to lymph node of human cervix from a patient diagnosed with squameous cell carcinoma of the cervix. The Z138 cell line is a mature B-cell acute lymphoblastic leukemia cell line derived from a patient with chronic lumphocytic leukemia. 3T3 cells are standard fibroblast cells; they were originally isolated from Swiss mouse embryo tissue.

Z138 cells = assay: MTT cell proliferation assay, Z138 cells; type: cell-based, human
Description: as §1, §2

3T3 cells = assay: MTT cell proliferation assay, 3T3 cells; type: cell-based, mouse; conditions: 3T3 fibroblast cells, incubation approximately 64-72 hours
Description: as §1, §2

[1] = Homo sapiens, Z-138, incubation approximately 64-72 hours

Nc1ccc([C@H]2C[C@@H]2C(=O)NCc2cc3cc(-c4ccc(C(=O)N5CC(F)C5)cc4)cc(-c4ccc(F)cc4)c3o2)cn1 [Compound K020, (1S,2S)-2-(6-aminopyridin-3-yl)-N—((5-(4-(3-fluoroazetidine-1-carbonyl)phenyl)-7-(4-fluorophenyl)benzofuran-2-yl)methyl)cyclopropanecarboxamide]
IC50 (MS751 cells; Homo sapiens): < 1 µM | IC50 (Z138 cells; [1]): < 1 µM | IC50 (3T3 cells; Mus musculus, NIH3T3): 1 to 5 µM

Nc1ccc([C@H]2C[C@@H]2C(=O)NCc2nc3cc(-c4ccc(C(=O)N5CCC(F)(F)CC5)cc4)cc(-c4ccc(F)cc4)c3o2)cn1 [Compound K021, (1S,2S)-2-(6-aminopyridin-3-yl)-N—((5-(4-(4,4-difluoropiperidine-1-carbonyl)phenyl)-7-(4-fluorophenyl)benzo[d]oxazol-2-yl)methyl)cyclopropanecarboxamide]
IC50 (MS751 cells; Homo sapiens): > 10 µM | IC50 (Z138 cells; [1]): > 10 µM | IC50 (3T3 cells; Mus musculus, NIH3T3): > 10 µM

Nc1ccc([C@H]2C[C@@H]2C(=O)NCc2cc3cc(-c4ccc(C(=O)N5CCC(F)(F)CC5)cc4)cc(-c4ccc(F)cc4)c3[nH]2)cn1 [Compound K022, (1S,2S)-2-(6-aminopyridin-3-yl)-N—((5-(4-(4,4-difluoropiperidine-1-carbonyl)phenyl)-7-(4-fluorophenyl)-1H-indol-2-yl)methyl)cyclopropanecarboxamide]
IC50 (MS751 cells; Homo sapiens): 1 to 5 µM | IC50 (Z138 cells; [1]): 5 to 10 µM | IC50 (3T3 cells; Mus musculus, NIH3T3): > 10 µM

Cn1c(CNC(=O)[C@H]2C[C@@H]2c2ccc(N)nc2)cc2cc(-c3ccc(C(=O)N4CCC(F)(F)CC4)cc3)cc(-c3ccc(F)cc3)c21 [Compound K023, (1S,2S)-2-(6-aminopyridin-3-yl)-N—((5-(4-(4,4-difluoropiperidine-1-carbonyl)phenyl)-7-(4-fluorophenyl)-1-methyl-1H-indol-2-yl)methyl)cyclopropanecarboxamide]
IC50 (MS751 cells; Homo sapiens): 1 to 5 µM | IC50 (Z138 cells; [1]): 1 to 5 µM | IC50 (3T3 cells; Mus musculus, NIH3T3): > 10 µM

Nc1ccc([C@H]2C[C@@H]2C(=O)NCc2cc3cc(-c4ccc(C(=O)N5CC(F)C5)cc4F)cc(-c4ccc(F)cc4)c3o2)cn1 [Compound K024, (1S,2S)-2-(6-aminopyridin-3-yl)-N—((5-(2-fluoro-4-(3-fluoroazetidine-1-carbonyl)phenyl)-7-(4-fluorophenyl)benzofuran-2-yl)methyl)cyclopropanecarboxamide]
IC50 (MS751 cells; Homo sapiens): < 1 µM | IC50 (Z138 cells; [1]): < 1 µM | IC50 (3T3 cells; Mus musculus, NIH3T3): < 1 µM

Nc1ccc([C@H]2C[C@@H]2C(=O)NCc2cnc(-c3ccc(-c4ccc(C(=O)N5CC(F)(F)C5)cc4)cc3C(F)(F)F)o2)cn1 [Compound K025, (1S,2S)-2-(6-aminopyridin-3-yl)-N—((2-(4′-(3,3-difluoroazetidine-1-carbonyl)-3-(trifluoromethyl)biphenyl-4-yl)oxazol-5-yl)methyl)cyclopropanecarboxamide]
IC50 (MS751 cells; Homo sapiens): 1 to 5 µM | IC50 (Z138 cells; [1]): 1 to 5 µM | IC50 (3T3 cells; Mus musculus, NIH3T3): > 10 µM

[2H]c1c(CNC(=O)[C@H]2C[C@@H]2c2ccc(N)nc2)oc2c(-c3ccc(F)cc3)cc(-c3ccc(C(=O)N4CC(F)C4)cc3)cc12 [Compound K026, (1S,2S)-2-(6-aminopyridin-3-yl)-N—((3-deutero-5-(4-(3-fluoroazetidine-1-carbonyl)phenyl)-7-(4-fluorophenyl)benzofuran-2-yl)methyl)cyclopropanecarboxamide]
IC50 (MS751 cells; Homo sapiens): < 1 µM | IC50 (Z138 cells; [1]): < 1 µM | IC50 (3T3 cells; Mus musculus, NIH3T3): 1 to 5 µM

Nc1ccc([C@H]2C[C@@H]2c2nc(-c3cc4cc(-c5ccc(C(=O)N6CC(F)C6)cc5)cc(-c5ccc(F)cc5)c4o3)co2)cn1 [Compound K029, (4-(2-(2-((1S,2S)-2-(6-aminopyridin-3-yl)cyclopropyl)oxazol-4-yl)-7-(4-fluorophenyl)benzofuran-5-yl)phenyl)(3-fluoroazetidin-1-yl)methanone]
IC50 (MS751 cells; Homo sapiens): 1 to 5 µM | IC50 (Z138 cells; [1]): 1 to 5 µM | IC50 (3T3 cells; Mus musculus, NIH3T3): > 10 µM

(1S,2S)-2-(6-aminopyridin-3-yl)-N—((7-chloro-5-(4-(3,3-difluoroazetidine-1-carbonyl)phenyl)-2,3-dihydrobenzofuran-2-yl)methyl)cyclopropanecarboxamide [Compound K028]
IC50 (MS751 cells): < 1 µM | IC50 (Z138 cells; incubation approximately 64-72 hours, read-out: MTT Assay IC50 Z-138): < 1 µM | IC50 (3T3 cells): > 10 µM
